Test results reported in patent US20180354909A1, “SUBSTITUTED BENZIMIDAZOLIUM, PYRIDO-IMIDAZOLIUM, OR PYRAZINO-IMIDAZOLIUM COMPOUNDS AS CHEMOTHERAPEUTICS” (The Board of Regents of the University of Texas System, priority 2015, published 2018).

System: Mut6
Test: Cytotox testing (CellTiter-Glo ATP assay) in Mut6 cells
Assay type: cell-based, mouse
Conditions: Mus musculus, 96 h, Mut6 cells, 4 days, CellTiter-Glo; read-out: Activity in Mut6 [EC50]
Experimental: Mut6 tumor cells were cultured in DMEM/F12 media supplemented by EGF (10 ng/mL), basic FGF (10 ng/mL), heparin (4 ug/mL), glucose (total 21 mM), NaHCO3 (113 μg/mL), Hepes (119 μg/mL), glutamine (2 mM), sodium pyruvate (1 mM), N2 supplement (ThermoFisher Gibco 17502-048, 100×, at 100-fold dilution), B27 supplement (ThermoFisher Gibco 12587-010, 50×, at 100-fold dilution), and penicillin/streptomycin (ThermoFisher, final 1%). Cells were maintained in Ultra-low attachment plate (Corning) as sphere-forming cells. For ATP assays and protein/RNA isolation, cells were plated into 96-well plates or 6-well plated that were coated with poly-lysine (Sigma P6407, 10 μg/mL in PBS, 4 hr at 37° C.) and laminin (ThermoFisher 23017015, ˜5 mg/L in PBS, overnight at 37° C.). MEFs and Astrocytes were cultured in DMEM supplemented with 10% FBS and 1% Penicillin/Streptomycin.
2,000 cells were plated into each well of 96-well plates. About 3 hours later, cells were treated by 12M11, at 800-fold dilution (4 mM stock was diluted into 5 μM final concentration). […] CellTiter-Glo assay (Promega) was performed according to manufacturer's instructions, by adding 20 μL of reagent into each well. Luminescence signal was detected by the PolarStar plate reader (BMG Labtech). Experiments were performed in quadruplicate, and results are presented with mean average −/+ standard deviation. EC505 were calculated by GraphPad Prism6 software.
The compounds described herein were tested using a cell-based cytotoxicity assay against neuronal stem cells in Mut6, which is a mouse glioblastoma model cell line.

| Structure (SMILES) | EC50 |
| --- | --- |
| CCc1n(CC(=O)OC2C[C@H](C)CC[C@H]2C(C)C)c2cc(Cl)ccc2[n+]1C (stereo partly shown) | 0.1 to 1 µM |
| C=CC[n+]1c(-c2ccc(N(C)C)cc2)n(CC(=O)OC2C[C@H](C)CC[C@H]2C(C)C)c2ccccc21 (stereo partly shown) | < 0.1 µM |
| CCc1n(CC(=O)OC2C[C@H](C)CC[C@H]2C(C)C)c2ncccc2[n+]1C (stereo partly shown) | 0.1 to 1 µM |
| CCc1n(CC(=O)OC2C[C@H](C)CC[C@H]2C(C)C)c2ccc(Br)cc2[n+]1C (stereo partly shown) | 0.1 to 1 µM |
| CCc1n([C@H](C)C(=O)OC2C[C@@H](C)CC[C@@H]2C(C)C)c2ccccc2[n+]1C (stereo partly shown) | < 0.1 µM |
| CCc1n(CC(=O)OC2C[C@H](C)CC[C@H]2C(C)C)c2cc(C#N)ccc2[n+]1C (stereo partly shown) | 1 to 5 µM |
| CC(C)[C@@H]1CC[C@@H](C)CC1OC(=O)[C@@H](C1CC1)n1c(-c2ccc(N(C3CC3)C3CC3)cc2)[n+](C)c2ccccc21 (stereo partly shown) | < 0.1 µM |
| CCc1n(CC(=O)OC2C[C@H](C)CC[C@H]2C(C)C)c2cc(Br)ccc2[n+]1C (stereo partly shown) | 0.1 to 1 µM |
| CC(C)[C@@H]1CC[C@@H](C)CC1OC(=O)Cn1c(-c2ccc(N=[N+]=[N-])cc2)nc2ccccc21 (stereo partly shown) | > 5 µM |
| CCc1n([C@@H](C(=O)OC2C[C@H](C)CC[C@H]2C(C)C)C2CC2)c2ccccc2[n+]1C (stereo partly shown) | < 0.1 µM |
| CCc1n(CC(=O)Oc2ccccc2)c2ccccc2[n+]1C | > 5 µM |
| CCc1n(CC(=O)OC(C)(C)C)c2ccccc2[n+]1C | > 5 µM |
| CCc1n([C@H](Cc2ccc(O)cc2)C(=O)OC2C[C@H](C)CC[C@H]2C(C)C)c2ccccc2[n+]1C (stereo partly shown) | 1 to 5 µM |
| Cc1cc(-c2n([C@@H](C(=O)OC3C[C@H](C)CC[C@H]3C(C)C)C3CC3)c3ccccc3[n+]2C)ccc1N(C)C (stereo partly shown) | < 0.1 µM |
| CC(C)[C@@H]1CC[C@@H](C)CC1OC(=O)Cn1c(-c2ccc(Cl)c(Cl)c2)[n+](C)c2ccccc21 (stereo partly shown) | 0.1 to 1 µM |
| CCc1n(CC(=O)OC2C[C@H](C)CC[C@H]2C(C)C)c2ccc(F)cc2[n+]1C (stereo partly shown) | 0.1 to 1 µM |
| CC(C)[C@@H]1CC[C@@H](C)CC1OC(=O)Cn1c(-c2ccc(C(C)(C)C)cc2)[n+](C)c2ccccc21 (stereo partly shown) | < 0.1 µM |
| Cc1cc(-c2n([C@H](C)C(=O)OC3C[C@H](C)CC[C@H]3C(C)C)c3ccccc3[n+]2C)ccc1N(C)C (stereo partly shown) | < 0.1 µM |
| CC(C)[C@@H]1CC[C@@H](C)CC1OC(=O)[C@@H](C)n1c(-c2ccc(C(F)(F)F)cc2)[n+](C)c2ccccc21 (stereo partly shown) | 0.1 to 1 µM |
| COC(=O)Cn1c(/C=C/c2ccccc2)nc2ccccc21 | > 5 µM |
| COc1ccc(-c2n([C@@H](C(=O)OC3C[C@H](C)CC[C@H]3C(C)C)C3CC3)c3ccccc3[n+]2C)cc1 (stereo partly shown) | < 0.1 µM |
| CC(C)[C@@H]1CC[C@@H](C)CC1OC(=O)Cn1c(-c2ccc(O)cc2)nc2ccccc21 (stereo partly shown) | > 5 µM |
| CCc1n(CC(=O)OC2C[C@H](C)CC[C@H]2C(C)C)c2ccc(C#N)cc2[n+]1C (stereo partly shown) | 1 to 5 µM |
| CCc1n(CC(=O)OC2C[C@H](C)CC[C@H]2C(C)C)c2ccc(OC)cc2[n+]1C (stereo partly shown) | < 0.1 µM |
| CCc1n([C@H](Cc2ccccc2)C(=O)OC2C[C@H](C)CC[C@H]2C(C)C)c2ccccc2[n+]1C (stereo partly shown) | 0.1 to 1 µM |
| CCc1n(CC(=O)OCc2ccccc2)c2ccccc2[n+]1C | > 5 µM |

| Structure (SMILES) | EC50 |
| --- | --- |
| CC(C)[C@@H]1CC[C@@H](C)CC1OC(=O)Cn1c(-c2ccc(Br)cc2)[n+](C)c2ccccc21 (stereo partly shown) | 0.1 to 1 µM |
| CC(C)[C@@H]1CC[C@@H](C)CC1OC(=O)[C@@H](C1CC1)n1c(-c2ccc(N(C)C)c(C(F)(F)F)c2)[n+](C)c2ccccc21 (stereo partly shown) | 0.1 to 1 µM |
| CC(C)[C@@H]1CC[C@@H](C)CC1OC(=O)[C@@H](C)n1c(-c2ccc(N(C)C)c(C(F)(F)F)c2)[n+](C)c2ccccc21 (stereo partly shown) | < 0.1 µM |
| CCc1n(CC(=O)OC2C[C@H](C)CC[C@H]2C(C)C)c2cc(F)ccc2[n+]1C (stereo partly shown) | < 0.1 µM |
| COC(=O)Cn1c(-c2cccc(C#N)c2)nc2ccccc21 | > 5 µM |
| CCc1n(CC(=O)OC2C[C@H](C)CC[C@H]2C(C)C)c2ccc([N+](=O)[O-])cc2[n+]1C (stereo partly shown) | 1 to 5 µM |
| CCc1n(CC(=O)OC2C[C@H](C)CC[C@H]2C(C)C)c2ccccc2[n+]1C (stereo partly shown) | < 0.1 µM |
| CC(C)[C@@H]1CC[C@@H](C)CC1OC(=O)[C@@H](C1CC1)n1c(-c2ccc(C(F)(F)F)cc2)[n+](C)c2ccccc21 (stereo partly shown) | 0.1 to 1 µM |
| COC(=O)Cn1c(-c2cccc(F)c2)nc2ccccc21 | > 5 µM |
| CC(C)[C@@H]1CC[C@@H](C)CC1OC(=O)Cn1c(-c2ccc(OC(=O)CCCCC3SC[C@H]4NC(=O)N[C@@H]34)cc2)[n+](C)c2ccccc21 (stereo partly shown) | 1 to 5 µM |
| CCCCN(CCCC)c1ccc(-c2n([C@H](C)C(=O)OC3C[C@H](C)CC[C@H]3C(C)C)c3ccccc3[n+]2C)cc1 (stereo partly shown) | < 0.1 µM |
| CCc1n(CC(=O)OC2C[C@H](C)CC[C@H]2C(C)C)c2cccnc2[n+]1C (stereo partly shown) | 0.1 to 1 µM |
| CC(C)[C@@H]1CC[C@@H](C)CC1OC(=O)Cn1c(-c2ccc(OC(C)(C)C)cc2)[n+](C)c2ccccc21 (stereo partly shown) | < 0.1 µM |
| CCc1n(CC(=O)OC2C[C@H](C)CC[C@H]2C(C)C)c2ccc(Cl)cc2[n+]1C (stereo partly shown) | 0.1 to 1 µM |
| CCc1n([C@@H](C)C(=O)OC2C[C@H](C)CC[C@H]2C(C)C)c2ccccc2[n+]1C (stereo partly shown) | < 0.1 µM |
| CC(C)[C@@H]1CC[C@@H](C)CC1OC(=O)Cn1c(-c2ccc(Cl)c(C(F)(F)F)c2)[n+](C)c2ccccc21 (stereo partly shown) | 0.1 to 1 µM |
| COC(=O)Cn1c(-c2ccc(F)cc2)nc2ccccc21 | > 5 µM |
| CC(C)[C@@H]1CC[C@@H](C)CC1OC(=O)Cn1c(-c2ccc(F)cc2)[n+](C)c2ccccc21 (stereo partly shown) | 0.1 to 1 µM |
| COC(=O)Cn1c(C)nc2ccccc21 | > 5 µM |
| CCc1n(CC(=O)O[C@H]2C[C@@H](C)CC[C@@H]2C(C)C)c2ccccc2[n+]1C | 0.1 to 1 µM |
| COC(=O)Cn1c(-c2ccc(SC)cc2)nc2ccccc21 | > 5 µM |
| CCc1n(CC(=O)OC2C[C@H](C)CC[C@H]2C(C)C)c2ccncc2[n+]1C (stereo partly shown) | 0.1 to 1 µM |
| CC(C)[C@@H]1CC[C@@H](C)CC1OC(=O)Cn1c(-c2ccc(Cl)cc2)[n+](C)c2ccccc21 (stereo partly shown) | 0.1 to 1 µM |
| COC(=O)Cn1c(-c2ccc(C)cc2)nc2ccccc21 | > 5 µM |
| CC(C)[C@@H]1CC[C@@H](C)CC1OC(=O)Cn1c(-c2ccc(N(C)C)cc2)[n+](CC2CC2)c2ccccc21 (stereo partly shown) | < 0.1 µM |
| CCc1n(CC(=O)OC23CC4CC(CC(C4)C2)C3)c2ccccc2[n+]1C | 1 to 5 µM |

| Structure (SMILES) | EC50 |
| --- | --- |
| CC(C)[C@@H]1CC[C@@H](C)CC1OC(=O)Cn1c(-c2ccc(N3CCCC3)cc2)[n+](C)c2ccccc21 (stereo partly shown) | < 0.1 µM |
| C#CCOc1ccc(-c2n(CC(=O)OC3C[C@H](C)CC[C@H]3C(C)C)c3ccccc3[n+]2C)cc1N=[N+]=[N-] (stereo partly shown) | 0.1 to 1 µM |
| CC(C)[C@@H]1CC[C@@H](C)CC1OC(=O)[C@@H](C)n1c(-c2ccc(N(C)C)cc2)[n+](C)c2ccccc21 (stereo partly shown) | < 0.1 µM |
| CCN(CC)c1ccc(-c2n([C@H](C)C(=O)OC3C[C@H](C)CC[C@H]3C(C)C)c3ccccc3[n+]2C)cc1 (stereo partly shown) | < 0.1 µM |
| C#CCN(CC(=O)Oc1ccc(-c2n(CC(=O)OC3C[C@H](C)CC[C@H]3C(C)C)c3ccccc3[n+]2C)cc1)Cc1ccc(C2(C(F)(F)F)N=N2)cc1 (stereo partly shown) | 1 to 5 µM |
| CC[n+]1c(-c2ccc(N(C)C)cc2)n(CC(=O)OC2C[C@H](C)CC[C@H]2C(C)C)c2ccccc21 (stereo partly shown) | < 0.1 µM |
| CC(C)[C@@H]1CC[C@@H](C)CC1OC(=O)[C@@H](C)n1c(-c2ccc(N(C3CC3)C3CC3)cc2)[n+](C)c2ccccc21 (stereo partly shown) | < 0.1 µM |
| COC(=O)Cn1c(-c2ccccc2)nc2ccccc21 | > 5 µM |
| COC(=O)Cn1c(-c2ccc(N(C)C)cc2)nc2ccccc21 | > 5 µM |
| CC(C)[C@@H]1CC[C@@H](C)CC1OC(=O)[C@@H](C1CC1)n1c(-c2ccc(N(C)C)cc2)[n+](C)c2ccccc21 (stereo partly shown) | < 0.1 µM |
| CCCCN(CCCC)c1ccc(-c2n([C@@H](C(=O)OC3C[C@H](C)CC[C@H]3C(C)C)C3CC3)c3ccccc3[n+]2C)cc1 (stereo partly shown) | < 0.1 µM |
| CCc1n([C@H](Cc2ccc(C)cc2)C(=O)OC2C[C@H](C)CC[C@H]2C(C)C)c2ccccc2[n+]1C (stereo partly shown) | < 0.1 µM |
| CCc1n(CC(=O)O[C@H]2CC[C@@H](C)CC2)c2ccccc2[n+]1C | > 5 µM |
| CC(C)[C@@H]1CC[C@@H](C)CC1OC(=O)Cn1c(-c2ccccc2)nc2ccccc21 (stereo partly shown) | > 5 µM |
| C/C=C/c1n(CC(=O)OC2C[C@H](C)CC[C@H]2C(C)C)c2ccccc2[n+]1C (stereo partly shown) | 1 to 5 µM |
| CC(C)[C@@H]1CC[C@@H](C)CC1OC(=O)Cn1c(-c2cccc(Cl)c2)[n+](C)c2ccccc21 (stereo partly shown) | 0.1 to 1 µM |
| CCN(CC)c1ccc(-c2n([C@@H](C(=O)OC3C[C@H](C)CC[C@H]3C(C)C)C3CC3)c3ccccc3[n+]2C)cc1 (stereo partly shown) | < 0.1 µM |
| CCc1n(CC(=O)OC2C[C@H](C)CC[C@H]2C(C)C)c2cc(C(F)(F)F)ccc2[n+]1C (stereo partly shown) | 1 to 5 µM |
| CC(C)[C@@H]1CC[C@@H](C)CC1OC(=O)Cn1c(-c2ccc(C(F)(F)F)cc2)[n+](C)c2ccccc21 (stereo partly shown) | 0.1 to 1 µM |
| CCc1n(CC(=O)OC2C[C@H](C)CC[C@H]2C(C)C)c2ccc(C(F)(F)F)cc2[n+]1C (stereo partly shown) | 1 to 5 µM |
| CCc1n([C@@H](C(=O)OC2C[C@H](C)CC[C@H]2C(C)C)C(C)(C)C)c2ccccc2[n+]1C (stereo partly shown) | 0.1 to 1 µM |
| C#CCCOC(=O)Cn1c(CC)[n+](C)c2ccccc21 | > 5 µM |
| CC(C)[C@@H]1CC[C@@H](C)CC1OC(=O)Cn1c(-c2cccc(Br)c2)nc2ccccc21 (stereo partly shown) | > 5 µM |
| C#CC[n+]1c(-c2ccc(N(C)C)cc2)n(CC(=O)OC2C[C@H](C)CC[C@H]2C(C)C)c2ccccc21 (stereo partly shown) | < 0.1 µM |
